Experimental data reported in patent publication US6071709A, “Nerve growth factor/receptor complex” (The United States of America as represented by the …, priority 1992, dated 2000).

What was measured:
[1] = tested on: gp140trk; test: trk tyrosine phosphorylation in explanted embryonic dorsal root ganglia treated with NGF; format: cell-based, mouse; design: dose or concentration left out as unconfirmed
Source text: FIGS. 4A-B show NGF-dependent tyrosine phosphorylation of gp140trk in the human neuroblastoma cell lines LA-N-5, SY5Y, and dorsal root ganglia from mouse embryos. FIG. 4A, gp140trk was immunoprecipitated from untreated (-) or NGF treated (+) LA-N-5 cells (K. H. Sonnenfeld and D. N. Ishii, J. Neurosci. Res. 8:375-391 (1982)), SY5Y cells (K. H. Sonnenfeld and D. N. Ishii, (1982)), NR18 cells (M. A. Bothwell et al., Cell 21:857-866 (1980)), or PC12 cells. Immunoprecipitates were probed with P-tyr antibodies. The differences in trk protein mobilities are due to differences in glycosylation. FIG. 4B, Tyrosine phosphorylation of gp140trk in DRGs from 13.5 day or 14.5 day embryonic mice. […] Tyrosine phosphorylated gp140trk from NGF-treated (+) PC12 cells or untreated (-) PC12 cells is shown for comparison. Samples were normalized for cell protein. Molecular weight markers in kDa are indicated.
Cell lines were treated with 100 ng/ml NGF for 5 min and gp140trk immunoprecipitated as in FIG. 1. DRGs were prepared by dissection for 13.5 or 14.5 day mouse embryos. 100 DRG's were treated with NGF, washed, and subjected to Dounce homogenization in 1% NP40 lysis buffer. Lysates were immunoprecipitated with trk antibody and the trk proteins were analyzed by antiphosphotyrosine immunoblots. […]

[2] = tested on: p140^prototrk; test: Affinity crosslinking of 125I-NGF to gp140trk with HSAB and immunoprecipitation; format: binding, rat; conditions: 0.5 nM 125I-NGF, 2 hr at 4° C., PC12 and rtrk-3T3 cells
Source text: FIG. 5 depicts the affinity crosslinking of NGF to gp140trk on PC12 cells and rtrk 3T3 cells. trk receptors were labeled by cross-linking of ^125 I-NGF to cultured cells using HSAB. The cell lines analyzed were PC12 cells (lanes 1-4), rtrk 3T3 cells (lanes 5-9), NIH-3T3 cells (lanes 10-11) and A875 human […] cells (lanes 13-15). Lysates from cells were immunoprecipitated with anti-NGF (lanes 1, 5, 9-14), gp140trk antibody 7-4 which is another trk antibody generated in bacteria against the gp70trk oncogene (7-4), (Martin-Zanca et al., (1989)) (lanes 2 and 6), or gp140trk antibody 43-4 in the absence (lanes […] and 15) or presence (lanes 4 and 8) of 10 μg/ml competing trk peptide. Crosslinking was performed in the presence of excess unlabeled NGF ([…]) in lanes 9, 11, and 14. The antibody 7-4 immunoprecipitates 3-5 fold less gp140 trk than does antibody 43-4. […]
^125 I-NGF was prepared by lactoperoxidase treatment to specific activities of 2500-3500 cpm/fmole. […] After washing in 50 mM lysine in phosphate buffered saline, cells were lysed in buffer containing 1% NP40 and the lysates immunoprecipitated and analyzed on 7.5% SDS-PAGE as described (Kaplan et al., (1990)).
To determine if NGF was capable of binding to p140^prototrk, several cell lines were analyzed for the ability of trk-specific antisera to precipitate receptor-ligand complexes in affinity crosslinking experiments (FIG. 5). […]

[3] = molecular target: T1, gp140^prototrk (Rattus norvegicus, UniProt P35739); conditions: PC12 cells, after NGF administration (Kaplan et al., 1991); cited from earlier work
T1 construct: tyrosine phosphorylation in response to NGF addition to PC12 cells; endogenous in cells; host or cells: PC12 cells
T1 sequence (P35739 33-799): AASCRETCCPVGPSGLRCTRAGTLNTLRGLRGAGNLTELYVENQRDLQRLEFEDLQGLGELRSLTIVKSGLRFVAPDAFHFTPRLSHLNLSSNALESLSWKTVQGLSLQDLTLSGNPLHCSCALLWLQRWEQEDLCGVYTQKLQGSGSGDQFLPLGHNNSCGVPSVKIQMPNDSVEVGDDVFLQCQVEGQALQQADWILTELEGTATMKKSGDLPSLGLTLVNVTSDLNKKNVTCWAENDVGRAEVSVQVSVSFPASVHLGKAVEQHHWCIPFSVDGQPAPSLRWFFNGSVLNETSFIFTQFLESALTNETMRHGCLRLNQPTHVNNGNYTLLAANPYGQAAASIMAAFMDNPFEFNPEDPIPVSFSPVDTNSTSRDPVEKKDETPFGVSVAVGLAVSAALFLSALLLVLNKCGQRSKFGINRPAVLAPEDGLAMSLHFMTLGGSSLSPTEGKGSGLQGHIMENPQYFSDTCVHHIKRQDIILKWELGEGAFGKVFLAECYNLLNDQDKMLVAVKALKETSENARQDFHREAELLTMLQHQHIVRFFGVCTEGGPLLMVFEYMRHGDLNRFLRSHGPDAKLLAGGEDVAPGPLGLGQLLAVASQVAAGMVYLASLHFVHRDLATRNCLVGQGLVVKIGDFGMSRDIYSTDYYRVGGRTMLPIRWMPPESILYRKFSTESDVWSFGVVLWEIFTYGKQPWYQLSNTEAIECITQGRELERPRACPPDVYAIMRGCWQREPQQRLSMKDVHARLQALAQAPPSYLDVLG

Chain of p140^prototrk (P35739 148-395 limits assumed): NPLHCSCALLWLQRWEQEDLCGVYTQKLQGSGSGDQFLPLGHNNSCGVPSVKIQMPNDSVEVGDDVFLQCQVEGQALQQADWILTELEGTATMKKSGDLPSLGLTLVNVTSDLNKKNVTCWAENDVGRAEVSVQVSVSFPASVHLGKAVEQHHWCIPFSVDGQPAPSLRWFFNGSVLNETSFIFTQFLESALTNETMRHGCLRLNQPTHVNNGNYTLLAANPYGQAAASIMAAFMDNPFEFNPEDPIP

Substance: NGF: neurotrophic polypeptide factor, nerve growth factor; ligand of trk proto-oncogene receptor
- phosphorylation of trk protein in 13.5 day DRG ([1]; E13.5 mouse embryo DRG): not in two independent preparations
- phosphorylation of trk protein in 14.5 day DRG ([1]; E14.5 mouse embryo DRG): detectable
- binding to p140^prototrk (160 kDa crosslinked species) [2]: binds
- time to appearance of trk tyrosine phosphorylation [3]: 1 min
